Earlier results in patent US6485659B1, “Electrical apparatus with dielectric fluid blend of polyalphaolefins and polyol esters or triglycerides” (priority 1995, dated 2002).
Like-named read-outs stand apart in the source and are kept apart here.

Tests used:
rats [1] = details: rat, in vivo
rats [2] = details: for chronic toxicity findings: rat, in vivo, po
[3] = within 7 days; Nippon

phenyl-ortho-tolyl-ethane [POXE]
LD50 in rats (rats [1]): 2.3 ml/kg (Dielectrol III, Saperstein and Faeder article)
chronic toxicity findings (rats [2]): showed lower weight gain, and liver/kidney enlargement (Dielectrol - Saperstein and Faeder.)
chronic toxicity findings (rats [2]; 146 mg/kg/day): <146 mg/kg/day showed little to no effects. (Nippon Oil/Saperstein and Faeder)
mortality (rats [2]; rats, oral, 0.58 ml/kg/day for 1 month, Dielectrol, Saperstein and Faeder): In rats, 0.58 ml/kg/day for 1 month yielded 50% mortality. 0.146 ml/kg/day for 3-6 months
biodegradation [3]: 100% biodegradation within 7 days (Nippon)
